Experimental data reported in patent US9573972B2, “Nurotoxic sterol glycosides” (priority 2008, dated 2017).
Entries after “also recorded” stand apart in the source; their conditions may differ.

Legend:
lipid deposits = assay: Oil red O histochemistry of lipid deposits; type: in vivo, mouse
Method: Tissue-mounted slides were processed to evaluate lipid distribution with light microscopy with a protocol adapted from Dr. Roy Ellis (IMVS Division of Pathology, The Queen Elizabeth Hospital, Woodville, South Australia). First, an oil red O stock solution was prepared 2 hours prior to execution of the histochemical procedures. The oil red O stock stain solution was made by mixing oil red O (0.5 g, Sigma-Aldrich, Oakville, ON, Canada) and isopropanol (100 mL, Fisher Scientific, Nepean, ON, Canada) over a 40° C. water bath. Immediately prior to beginning the oil red O histochemical procedures, the oil red O working solution was made by combining 20 mL of distilled water for every 30 mL of oil red O stock stain solution. […] Slide-mounted sections were rinsed in coplin jars for 15 minutes at RT in three changes of PBS. Sections were then rinsed at RT with 60% isopropanol for 5 minutes. The spinal cord sections were then stained with a freshly prepared working solution of oil red O for 20 minutes and then rinsed with 60% isopropanol. Nuclear counterstaining was achieved by staining the sections with haematoxylin (haematoxylin, 7211, Richard Allan Scientific, Kalamazoo, Mich., USA) for 1 minute. Finally, the sections were rinsed with distilled water, dried under a fume hood and cover-slipped with Entellen (Merck, Darmstadt, Germany).
The numbers of immunoreactive somata or inclusions were counted across the ventral horn of the spinal cord, across brain hemispheres, or per dorsal or ventral root with the 40× objective lens in a 600 μm/600 μm area within region perimeters defined by a mouse brain atlas (2001). For each animal, eight cross-sections per spinal cord or brain region were studied. An average of both the right and left ventral horn for each of the eight cross sections was generated giving a final averaged number for each animal in each of the spinal cord areas. For quantification of the level of mitochondrial activity (cytochrome c oxidase labelling) in the lumbar spinal cord or tyrosine hydroxylase immunoreactivity in the substantia nigra pars compacta and striatal sections, images captured using the Motic B5 Professional Series 3.0 microscope (Motic Instruments Inc., Richmond, ON) and analyzed using Motic B5 Professional, Motic Images Advanced 3.0 (Motic Instruments Inc., Richmond, ON) were scanned into a TIFF format file and analysed using the NIH Image J 1.37 software to measure density levels of antibody labelling. Eight to 12 sections from each mouse per region of interest were included.

[1] = test system: Phosphorylated tau aggregates; assay: Tau immunohistochemistry; type: in vivo, mouse; parameters: key to Phosphorylated tau aggregates: − = not present; + = present; details: for Phosphorylated tau aggregates: SG-fed
Method: Slide-mounted lumbar and thoracic spinal cord and brain sections were first rinsed for 45 minutes in 3 changes of PBS then quenched in 3% H2O2 in PBST (PBS+0.5% Triton X-100) for 10 minutes. The slides were rinsed for 4 minutes in 2 changes of PBST. The MOM mouse Ig blocking reagent was prepared as per the manufacturer's instructions. Two drops of mouse Ig stock solution was added to 2.5 mL of PBS. The sections were incubated with this solution for 1 hour at RT. Following this step, sections were rinsed for 4 minutes in 2 changes of PBST and incubated (5 minutes) with the MOM diluent solution prepared by adding 600 V1 of MOM protein concentrate to 7.5 mL of PBS. The diluent was tipped off the slides and replaced by a solution comprised of primary phospho-Tau antibody diluted at 1:100 in the diluent solution prepared in the same manner as discussed above. The sections were incubated for 60 minutes at RT. Subsequently, sections were rinsed for 4 minutes in 2 changes of PBST and incubated for 10 minutes in the MOM biotinylated anti-mouse IgG reagent (10 V1 of MOM biotinylated anti-mouse IgG diluted in 2.5 mL of the MOM diluents). The sections were then rinsed in PBST and incubated (1 hour at RT) with the secondary antibody prepared by combining one drop of secondary antibody (biotinylated goat-anti-rabbit IgG) from the Vectastain ABC Elite kit (Vector Laboratories, Burlingame, Calif., USA) was combined with 3 drops of serum stock to 10 mL of PBST. At 30 minutes after start of slide incubation with the secondary antibody, an immunoperoxidase solution was prepared by adding 2 drops of reagent A and 2 drops of reagent B (Vectastain Elite ABC kit, Vector Laboratories, Burlingame, Calif., USA) to 2.5 mL of PBST. After one hour incubation of the slides with the secondary antibody solution, the slides were rinsed for 4 minutes in two changes of PBST and incubated for 30 minutes in the working immunoperoxidase solution. Next, the sections were rinsed for 4 minutes in 2 changes of PBST. During the rinses, the DAB liquid substrate was prepared for the next step. As per manufacturer's instructions, 2 drops of buffer stock solution, 5 mL of ddH2O, 4 drops of DAB stock solution, and 2 drops of hydrogen peroxide solution were combined. The slides were incubated for 3 minutes at RT with this DAB solution and monitored for color development. The sections were rinsed for 5 minutes in ddH2O to stop the reaction and rid slides of DAB substrate. A methyl green nuclear counterstain was used to elucidate nuclei and motor neuron somata. The 0.5% methyl green counterstain was prepared in the following manner: First, the sodium acetate buffer was prepared with 1.36 g of sodium acetate trihydrate to 100 mL of distilled water adjusted to pH 4.2 using glacial acetic acid. For every 100 mL of buffer, 0.5 g of methyl green (ethyl violet, Sigma-Aldrich, Oakville, ON, Canada) was added to make a 0.5% methyl green solution. Slide-mounted sections were stained in the above methyl green solution for 5 minutes at RT. Sections were rinsed in distilled water, until the water became clear. […]
The numbers of immunoreactive somata or inclusions were counted across the ventral horn of the spinal cord, across brain hemispheres, or per dorsal or ventral root with the 40× objective lens in a 600 μm/600 μm area within region perimeters defined by a mouse brain atlas (2001). […]

Compound: CC[C@H](/C=C/[C@@H](C)[C@H]1CC[C@H]2[C@@H]3CC=C4C[C@@H](O[C@@H]5O[C@H](CO)[C@@H](O)[C@H](O)[C@H]5O)CC[C@]4(C)[C@H]3CC[C@]12C)C(C)C [SG, Stigmasterol β-D-Glucopyranoside]
- Lipid deposits DR over time (lipid deposits; SG-fed over time (35 to 52 wk)): did not show time-dependent effects; also recorded: SG-fed DR over time: ns, p = 0.8062
- Lipid deposits Lsc over time (lipid deposits; SG-fed over time (35 to 52 wk)): did not experience an accumulation of deposits over time; also recorded: SG-fed Lsc over time: ns, p = 0.4864
- Lipid deposits VR over time (lipid deposits; SG-fed over time (35 to 52 wk)): did not show time-dependent effects; also recorded: SG-fed VR over time: ns, p = 0.5478
- Lipids in dorsal roots (lipid deposits; SG-fed vs control, 35 weeks): not significant
- Lipids in ventral spinal roots, change (lipid deposits; SG-fed vs control, 35 weeks): +10%
- Lipids in dorsal root (lipid deposits; SG-fed vs control, 52 weeks): statistically significant inter-group differences were not found
- Lipids in ventral root (lipid deposits; SG-fed vs control, 52 weeks): statistically significant inter-group differences were not found
- Number and size of lipid deposits (lipid deposits; lumbar spinal cord and ventral roots, SG-fed vs control): greater
- Apoptosis of phosphorylated-tau containing cells ([1]; SG-fed animals at 52 weeks): majority of the phosphorylated-tau containing cells were actively undergoing apoptosis
- Phosphorylated tau aggregates ([1]; Time-point 1 (35 wk)): −
- Phosphorylated tau aggregates ([1]; Time-point 2 (52 wk)): +
- Phosphorylated tau aggregates, incidence in SG-fed group ([1]; Time-point 2 (52 wk)): 2/8
- Accumulation of phosphorylated tau ([1]; ventral horn of lumbar spinal cord, SG-fed mice, none in non-treated mice): induced accumulation of phosphorylated tau; also recorded: Phosphorylated Tau aggregates were observed
